System: JAK/STAT signaling
Test: Western blotting of phospho-STAT1, STAT2, STAT3 in HCV replicon cells
Assay type: cell-based, human
Settings: 30 μM, 24 h
Procedure: HCV replicon cells were treated with 30 μM CDM-3008, iCDM-17, and iCDM-34 for 1 day. The cells were lyzed with 1 x SDS sample buffer containing PhosStop, Complete EDTA free, and 1 mM EDTA. After sonication for 30 s, the lysates were centrifuged at 12,000g for 10 min at 4 °C, and then the supernatants were collected. After reducing the 20 μg of supernatants with 50 mM DTT at 98 °C for 2 min, the samples were separated by SDS-PAGE. STAT1, STAT2, STAT3, pSTAT1, pSTAT2, and pSTAT3 were detected by Western blotting using anti-STAT1 (9175, 1/1000), STAT2 (72604, 1/1000), STAT3 (12640, 1/1000), pSTAT1 (Y701) (7649, 1/1000), pSTAT2 (Y690) (88410, 1/1000), and pSTAT3 (Y705) (9145, 1/1000) antibodies (Cell signaling technology, Massachusetts, USA).

Compound: O=C(Nc1ccc(Br)cc1)c1ccn(Cn2cc([N+](=O)[O-])cn2)n1 [iCDM-34]
- phosphorylation of STAT1, STAT2, and STAT3: not induced

Source: article PMC10746708, “A small molecule iCDM-34 identified by in silico screening suppresses HBV DNA through activation of aryl hydrocarbon receptor” (Cell Death Discovery, 2023)
